The record followed here is US20210068388A1, “A MULTIPURPOSE POTENTIATOR COMPOSITION AND THE METHODS THEREOF” (priority 2017, published 2021).

Where two headings read alike, the source gives them in different places.

The subject of series [1] is African green monkey kidney cells (Vero cells).
Protocol: (§1) In-vitro cytotoxicity of the composition of was carried out on African green monkey kidney cells (Vero cells).
Series [2] shares this test system. In words: In-vitro cytotoxicity on Vero cells.
Protocol: as §1

For `[Na+].[OH-]` [Control-II, Sodium hydroxide], in series [1], the “Non-toxic level (%)” value worked out at 0.06% and the toxic level was 0.06%.
Consider `[Cl-].[Na+]` [Control-I, Sodium chloride], for which the toxic level in series [2] was determined as 0.50%. Also, the “Non-toxic level (%)” value in series [2] (up to total amount of the composition) came out at 0.50%.
